For assay [1], the system named is NIH3T3 cells. Nature of the assay: NIH3T3 cell proliferation. In kind it is cell-based. The method, then: Cells were treated for 24 hours and proliferation was measured via ^3H-thymidine incorporation pre- and post-treatment. Data for each cell line were normalized to ^3H counts measured pre-treatment. […] Ac-DDDD-Tat is a control peptide for Lys-CoA-Tat. WM35, WM983A, and 1205Lu are melanoma cell lines representing three stages of cancer progression: radial, vertical, and metastatic, respectively.

The subject of assay [2] is WM35 melanoma cells. Description: senescence-associated beta galactosidase staining. It counts as cell-based, human. Particulars: 72 hours, low and high serum concentrations. The procedure: FIG. 14A includes scatter plots. […] WM35 melanoma cells were also treated with camptothecin as a positive control for apoptosis. FIGS. 14B and 14C include images of the treated cells stained for senescence-associated beta galactosidase.

In assay [3] the target is T1, MOZ histone acetyltransferase (Homo sapiens, UniProt Q92794).
T1 construct: made in house
Description: MOZ direct radioactive HAT assay. As to conditions: 10 μM compound; read-out: Percent inhibition of acetyltransferase, Moz. It counts as biochemical. The method, then: PCAF reactions were performed in 100 mM HEPES, pH 7.9, and contained 200 μM TPP, 5 mM MgCl2, 1 mM DTT, 50 mM NaCl, 0.05 mg/mL BSA, 200 μM NAD, 2.4 mM α-KG, 30 μM acetyl-CoA, 0.037 units α-KGDH, 3.3% DMSO, and 10 μM inhibitor. Reactions took place at 30° C. Reactions were initiated by addition of 10 nM PCAF and were followed at 340 nm over the linear portion of the curve below 10% turnover. AANAT reactions were performed in 100 mM NH4 OAc, pH 6.8, and contained 200 μM TPP, 5 mM MgCl2, 1 mM DTT, 50 mM NaCl, 0.05 mg/mL BSA, 200 μM NAD, 2.4 mM α-KG, 200 μM AcCoA, 0.1 units α-KGDH, 3.3% DMSO, and 10 μM inhibitor. Reactions took place at 25° C. Reactions were initiated with addition of 65 nM AANAT, and followed at 340 nm, as above. Percent inhibition values were compared to those with p300, which were repeated using the protocol given above. […]
HAT assays with yeast GCN5, SAS complex, MOZ, and Rtt109/Vps75 complex used the direct radioactive assay described above. […] The amount of enzyme used in each assay was estimated by comparing Coomassie Blue staining of samples with bovine serum albumin standards, analyzed by SDS-PAGE. […] The rate of ^14C-incorporation into histone H3 was quantified by autoradiography. […]

Assay [4] relates to global histone H3 acetylation in WM983A cells. Nature of the assay: histone H3 acetylation Western blot in WM983A. It counts as cell-based, human. As to conditions: 6 hours, increasing doses. The method, then: Cells were treated with each compound for 24 hours, and proliferation was measured via ^3H-thymidine incorporation. […] Nuclear lysates were subjected to Western blot analysis for acetylated H3 (Upstate 06-599). Total H3 (Abeam ab1791) was blotted as a loading control.
On the technique in general: Immunoblotting shows a protein as a band on a membrane.

Assay [5] deals with H247 glioblastoma cells. Description: AlamarBlue growth inhibition, H247. It counts as cell-based. As to conditions: H247, 72 hours. The method, then:
(§1) Dose response curves were generated using the AlamarBlue® assay (Invitrogen, Carlsbad, Calif.).
(§2) When inhibition was assessed using the AlamarBlue® assay (Invitrogen, Carlsbad, Calif.), cells were initially seeded at 500 cells per well in a 96-well plate. AlamarBlue® is a non-toxic reagent that measures cellular metabolic activity. Its main ingredient is resazurin, a non-fluorescent indicator dye that is reduced to bright red-fluorescent resorufin in metabolically active cells. AlamarBlue® was added to growth medium at 1/10 of the total volume (e.g., 20 μl in 200 μl total volume). […] Fluorescence reading was taken from the same plate every day for 5 days to ensure that the saturation point was not reached. Fluorescence intensity is proportional to the number of live cells in the plate.
For orientation: Alamar Blue is a resazurin reagent that responds to reducing activity.

Assay [6] concerns NCI-60 panel of tumor cell lines. Description: NCI-60 DTP human tumor cell line screen. It counts as cell-based. Particulars: 48 hours. The method, then: The in vitro cancer screen was performed at the National Cancer Institute as described in detail at http://dtp.nci.nih.gov/branches/btb/ivelsp.html.
Briefly, cells were plated in 96 well plates at a concentration of 5,000-40,000 cells/well. […] Using the absorbance measurements [time zero, (Tz), control growth, (C), and test growth in the presence of drug at the five concentration levels (Ti)], the percentage growth was calculated at each of the drug concentrations levels. Percentage growth inhibition was calculated as: [(Ti−Tz)/(C−Tz)]×100 for concentrations for which Ti≧Tz [(Ti−Tz)/Tz]×100 for concentrations for which Ti<Tz where Tz is time zero, C is control growth, and Ti is test growth in the presence of drug at the five concentration levels.

Assay [7] has as its system cyclin A in melanoma cells. Nature of the assay: cyclin A protein expression, Western blot. In kind it is cell-based. As to conditions: 10-20 μM C646. The source says: FIGS. 19A and 19B show the effects of p300/CBP HAT inhibition on cyclin A protein expression in melanoma cells.
Cyclin A is involved in two cell cycle checkpoints. Cyclin A associates with cdk2 to promote S phase progression, and then it associates with cdc2 during the G2 phase.

In assay [8] the test system is melanoma cell lines from varying stages of progression. Nature of the assay: 3H-thymidine incorporation, melanoma lines of varying stages. It counts as cell-based. As to conditions: 24 hours. The procedure: Proliferation was measured via ^3H-thymidine incorporation.
Assay [9] deals with D54 glioblastoma cells. Description: AlamarBlue growth inhibition, D54. It counts as cell-based. As to conditions: D54, 72 hours. The method, then:
as §1, §2

T1 sequence (Q92794 497-780 limits assumed): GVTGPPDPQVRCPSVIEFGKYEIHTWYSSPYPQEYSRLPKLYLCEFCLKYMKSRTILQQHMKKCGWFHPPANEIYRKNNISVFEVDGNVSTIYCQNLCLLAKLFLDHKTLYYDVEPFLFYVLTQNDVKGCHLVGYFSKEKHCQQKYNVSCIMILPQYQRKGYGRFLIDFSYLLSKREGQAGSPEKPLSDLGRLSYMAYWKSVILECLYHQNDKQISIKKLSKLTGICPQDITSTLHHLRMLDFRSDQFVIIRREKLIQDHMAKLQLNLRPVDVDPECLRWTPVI

By inhibition is commonly meant the share of the control response that was lost under treatment. The term IC50 denotes the midpoint of a concentration-inhibition curve. Read a high IC50 as lower potency. Turning to `CC1=NN(c2ccc(C(=O)O)cc2)C(=O)C1=Cc1ccc(-c2cc(C)c(C)cc2[N+](=O)[O-])o1` [Compound C646, 4-(4,5-dihydro-3-methyl-4-((5-(4,5-dimethyl-2-nitrophenyl)furan-2-yl)methylene)-5-oxopyrazol-1-yl)benzoic acid], the “effect on cell proliferation” value in assay [1] is given as “does not have a significant inhibitory effect”. Also, the senescence result in assay [2] was “induced sensecence in WM35 cells”. Also, the inhibition at 10 µM in assay [3] is less than 10%. The “global histone H3 acetylation” value in assay [4] is on record as “dose-dependent reduction”. The IC50 was 14.4 µM in [5] and 9.3 µM in assay [9]. The “growth inhibition / cell death” value in [6] is “significant growth inhibition and/or tumor cell death”. Further, the “cyclin A protein level” value in assay [7] is given as “decreases after C646 treatment in a dose-dependent fashion”. Further, the 3H-thymidine incorporation result in [8] was “reduced ^3H-thymidine incorporation”.

The values are drawn from patent publication US9005670B2, “Use of histone acetyltransferase inhibitors as novel anti-cancer therapies” (The Johns Hopkins University, priority 2010, dated 2015).
